Data published in US20130045952A1, “ABA Receptor Agonists for Increased Plant Stress Resistance” (Van Andel Research Institute, priority 2011, published 2013).

Legend:
Format in all cases: biochemical
[1] = target: T1, His6-PYR1 / biotin-ABI1 (Arabidopsis thaliana, UniProt O49686); experiment: AlphaScreen dose response, PYR1-ABI1 interaction; details: 100 nM His6-PYR1, 100 nM biotin-PP2C, 0-100 μM agonist; from dose response curves
T1 construct: made in house; host or cells: E. coli (stated for the PP2Cs; not expressly for PYR1)
T1 sequence (O49686 1-191): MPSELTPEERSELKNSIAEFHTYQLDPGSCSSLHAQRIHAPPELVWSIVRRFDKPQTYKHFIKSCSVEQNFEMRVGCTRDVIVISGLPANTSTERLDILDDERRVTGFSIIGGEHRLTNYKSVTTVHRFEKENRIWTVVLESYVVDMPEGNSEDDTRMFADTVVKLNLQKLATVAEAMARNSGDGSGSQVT
T1 sequence (P49597 117-434 partner limits assumed): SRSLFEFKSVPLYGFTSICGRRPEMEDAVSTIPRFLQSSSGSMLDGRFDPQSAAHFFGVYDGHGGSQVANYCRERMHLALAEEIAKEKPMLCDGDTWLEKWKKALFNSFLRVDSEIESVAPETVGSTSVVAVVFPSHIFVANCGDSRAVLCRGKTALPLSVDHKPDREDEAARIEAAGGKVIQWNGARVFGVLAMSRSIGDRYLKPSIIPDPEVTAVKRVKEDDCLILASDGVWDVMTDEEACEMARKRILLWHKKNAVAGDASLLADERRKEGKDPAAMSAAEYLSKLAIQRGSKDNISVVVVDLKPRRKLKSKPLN
Experimental: (§1) Interactions between PYR/PYL and PP2Cs were assessed by luminescence-proximity AlphaScreen technology (Perkin Elmer). Briefly, biotinylated PP2Cs were attached to streptavidin-coated donor beads, and H6-tagged PYR/PYL receptors were attached to nickel-chelated acceptor beads. The donor and acceptor beads were brought into proximity by the interactions between PYR/PYLs and PP2Cs, which were measured with and without ligands. When excited by a laser beam of 680 nm, the donor beam emits singlet oxygen that activates thioxene derivatives in the acceptor beads, which releases photons of 520-620 nm as the binding signal. The experiments were conducted with 100 nM of PP2Cs and PYR/PYL proteins in the presence of 5 ug/ml donor and acceptor beads in a buffer of 50 mM MOPS, pH7.4, 50 mM NaF, […], and 0.1 mg/ml bovine serum albumin. The results were based on an average of three experiments with standard errors typically less than 10% of the measurements.
The results shown in Table 5b were calculated from the dose response curves of the dependence of the interaction between 100 nM His6-PYR1 and 100 nM biotin-PP2C on the presence of 0-100 μM agonists determined by AlphaScreen luminescence proximity assay. Key (EC50 in μM): ++++=<5.0 μM; +++=5-10 μM; ++=10-20 μM; and +=>20-60 μM.

[2] = target: T2, ABI1 (Arabidopsis thaliana, UniProt O49686+P49597); experiment: PP2C phosphatase activity assay, ABI1; details: 200 nM PP2C; SnRK2.6 phosphopeptide substrate; None = 100
T2 construct: ABI1 (residues 117-434) and ABI2 (residues 101-423) were expressed as H6Sumo fusion proteins; H6Sumo (N); made in house; host or cells: E. coli BL21
T2 sequence (P49597 117-434 limits assumed): T1 sequence (P49597 117-434 partner limits assumed)
T2 sequence (O49686 1-191): T1 sequence (O49686 1-191)
Experimental: (§2) Mutant proteins were expressed as H6GST-fusion proteins and purified by glutathione sepharose chromatography. Protein-protein interactions were determined by luminescence proximity AlphaScreen assay. Biotinylated PP2C proteins for the luminescence proximity assay were generated by in vivo biotinylation of avitag-PP2C fusion proteins. PP2C phosphatase activity was measured by phosphate release from a SnRK2.6 phosphoprotein.
PP2Cs and PYR/PYL proteins were pre-incubated at the indicated concentrations in 50 mM imidazole, pH 7.2, 5 mM MgCl2, 0.1% β-mercaptoethanol and 0.5 mg/ml BSA for 30 min at room temperature. Reactions were started by addition of 100 μM of a phosphopeptide corresponding to amino acids 170-180 of SnRK2.6 (HSQPK^pSTVGTP). This peptide is phosphorylated at a single residue corresponding to Ser175 in SnRK2.6, whose phosphorylation is required for SnRK2.6 kinase activity^32. Phosphate release from ^pS175 from the phosphopeptide was determined by colorimetric assay (BioVision).

[3] = target: T3, His6-PYL1 / biotin-PP2C (Arabidopsis thaliana, UniProt Q8VZS8); experiment: AlphaScreen luminescence proximity assay, PYL1-PP2C interaction; details: for Stimulation of the interaction between PYL1 and PP2C (binding signal): 100 nM His6-PYL1, 100 nM biotin-PP2C, 100 μM agonist, normalized against a pyrabactin control
T3 construct: PYL1 (residues 36-211), PYL2 (residues 14-188), and HAB1 (residues 172-511) were prepared as recombinant proteins in E. coli; made in house; host or cells: E. coli
T3 sequence (Q8VZS8 36-211): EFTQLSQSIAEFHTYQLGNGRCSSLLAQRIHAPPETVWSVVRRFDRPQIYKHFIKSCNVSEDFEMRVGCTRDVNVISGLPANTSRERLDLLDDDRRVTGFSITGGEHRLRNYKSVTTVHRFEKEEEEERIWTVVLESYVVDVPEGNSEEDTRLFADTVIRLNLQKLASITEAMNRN
Experimental: as §2, §1
(§3) Values were determined in different experiments and normalized against a pyrabactin control. Blank spaces mean no experimental data is available. Key (photon counts (binding signal units) in Alphascreen luminescence proximity assay): “+++ is >75,000; ++ is 25,000−75,000; + is <25,000.

[4] = target: T4, His6-PYL3 / biotin-PP2C (Arabidopsis thaliana, UniProt Q9SSM7); experiment: AlphaScreen luminescence proximity assay, PYL3-PP2C interaction; details: for Stimulation of the interaction between PYL3 and PP2C (binding signal): 100 nM His6-PYL3, 100 nM biotin-PP2C, 100 μM agonist, normalized against a pyrabactin control
T4 construct: made in house; host or cells: not expressly stated for PYL3
T4 sequence (Q9SSM7 1-209): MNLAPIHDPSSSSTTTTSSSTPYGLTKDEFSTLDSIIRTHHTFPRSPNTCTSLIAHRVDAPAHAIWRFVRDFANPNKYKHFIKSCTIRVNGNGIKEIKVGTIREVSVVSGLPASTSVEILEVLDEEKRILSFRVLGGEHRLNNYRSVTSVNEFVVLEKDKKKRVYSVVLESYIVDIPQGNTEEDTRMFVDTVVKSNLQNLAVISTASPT
Experimental: as §2, §1, §3

[5] = purified proteins in vitro, HAB1, ABI1, ABI2

| EC50 [1] | % Phosphatase Activity ABI1 [2] | Stimulation of the interaction between PYL1 and PP2C (binding signal) [3] | Stimulation of the interaction between PYL3 and PP2C (binding signal) [4] | SMILES | Promotion of PYL1 interaction with the three PP2Cs [3, 5] | Agonist activity in wildtype PYL1 ([3]; wildtype PYL1) | Promotion of PYL3 interaction with the three PP2Cs [4, 5] |
| --- | --- | --- | --- | --- | --- | --- | --- |
| 10 to 20 µM | 3.3 ± 1.0% | + (+ is <25,000) | + (+ is <25,000) | O=C1Nc2ccc(S(=O)(=O)NCc3ccccn3)c3cccc1c23 [Compound 1] |  |  |  |
| 10 to 20 µM | 4.3 ± 0.8% | + (+ is <25,000) | + (+ is <25,000) | CCOC(=O)CNS(=O)(=O)c1ccc2c3c(cccc13)C(=O)N2CC [Compound 2] |  |  |  |
| 10 to 20 µM | 4.7 ± 1.0% | + (+ is <25,000) | ++ (++ is 25,000−75,000) | CCN1C(=O)c2cccc3c(S(=O)(=O)NC[C@@H]4CCCO4)ccc1c23 [Compound 11] |  |  |  |

| SMILES | EC50 [1] | % Phosphatase Activity ABI1 [2] | Stimulation of the interaction between PYL1 and PP2C (binding signal) [3] | Stimulation of the interaction between PYL3 and PP2C (binding signal) [4] | Promotion of PYL1 interaction with the three PP2Cs [3, 5] | Agonist activity in wildtype PYL1 ([3]; wildtype PYL1) | Promotion of PYL3 interaction with the three PP2Cs [4, 5] |
| --- | --- | --- | --- | --- | --- | --- | --- |
| O=S(=O)(NCc1ccccn1)c1ccc(Br)c2ccccc12 [Pyrabactin, pyrabactin] | 5 to 10 µM | 2.8 ± 0.2% |  |  | promoted interaction | very weak | promoted interaction |
